Experimental data as given in patent US20130102081A1, “Detection and Characterization of Protein Degradation, Protein Degradation Modulation and Protein Degradation Modulators” (priority 2011, published 2013).

Molecular target: T1, trypsin (Bos taurus, UniProt P00760)
T1 construct: gene PRSS1
T1 sequence (P00760 24-246): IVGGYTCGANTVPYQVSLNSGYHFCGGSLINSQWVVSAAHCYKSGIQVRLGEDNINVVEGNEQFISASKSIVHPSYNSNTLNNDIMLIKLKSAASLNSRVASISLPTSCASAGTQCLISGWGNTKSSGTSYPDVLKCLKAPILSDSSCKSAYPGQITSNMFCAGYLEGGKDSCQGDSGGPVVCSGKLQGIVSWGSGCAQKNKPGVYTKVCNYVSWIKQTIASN
Experiment: EMR spectroscopy of spin-labeled BSA degradation by the protease trypsin, with and without modulators
Format: biochemical
Conditions: EMR peak height versus time, compared with protease alone
Text: The spin label is attached to a protein and the control or un-degraded protein EMR spectrum recorded. Degradation of the protein by any degradation mechanism creates products with predictably different angular mobility than that of the control. […] Degradation is further characterized through quantitative analysis of the product and reactant subpopulations. Modulation of that degradation, regardless of the mechanism of modulation, can be expressed in a variety of ways, only one of which is an alteration in concentration of the degradation subpopulations. For example, inhibition of degradation is expressed by a reduction in concentration of relatively mobile subpopulation(s), degradation promotion by an increase in the mobile subpopulation. Chemical, biochemical and biological entities are readily tested for their potential as modulators.
Shown are EMR spectra of spin-labeled bovine serum albumin (BSA, spin label attached to BSA under conditions which favor attachment to a sulfhydryl). Key features of the intact protein's spectrum are denoted by the numbers 1 and 5. At 7, 21 and 40 minutes (spectra 2, 3 and 4 respectively) following the addition of the protease, trypsin, a second, more mobile, product population appears, characterized by three, relatively sharp peaks superimposed on the spectrum of the intact protein. Protein degradation is clearly expressed with products expressing more rapid angular mobility than reactants. Both reactant and product subpopulations are apparent in the spectra with the growth of the product population matched by a concomitant loss of reactants. Subpopulation spectra are amenable to further analyses in accord with practices associated with the selected observation method.
Shown are four EMR spectra (6, 7, 8, 9) for conditions identical to those in FIG. 1 of 5 with the exception that trypsin inhibitor is present. The presence and action of the modulator is clear and unambiguous.
Shown is the concentration of products, as reflected in the heights of the rightmost peaks labeled 1, 2, 3, and 4 in FIG. 1 of 5, versus time. […]

| Compound | modulation of protein degradation (time course of appearance of the mobile product subpopulation) |
| --- | --- |
| Cc1c(O)cccc1C(=O)N[C@@H](CSc1ccccc1)[C@H](O)CN1C[C@H]2CCCC[C@H]2C[C@H]1C(=O)NC(C)(C)C [Nelfinavir] | promotion of degradation |
| CC(C)C[C@H](NC(=O)[C@@H](NC(=O)N[C@@H](Cc1ccccc1)C(=O)O)[C@@H]1CCN=C(N)N1)C(=O)N[C@H](C=O)Cc1ccccc1 [chymostatin] | Modulation of protein degradation is clear |
| leupeptin hemisulfate | Modulation of protein degradation is clear |
